Measured values reported in ChEMBL document CHEMBL4725290, “Synthesis of 2-guanidinyl pyridines and their trypsin inhibition and docking” (Bioorg Med Chem, 2020).

Experiments:
[1] = Competitive inhibition of bovine pancreas trypsin assessed as release of para-nitroaniline using L-BAPA as substrate in presence of 4-nitrophenyl 4-guanidinobenzoate hydrochloride as inhibitor at pH 7.2 at 25 degC; set-up: species or system Bos taurus
Bos taurus = organism: Bos taurus; assay: Competitive inhibition of bovine pancreas trypsin assessed as release of para-nitroaniline using L-BAPA as substrate at pH 7.2 in absence of inhibitor at 25 degC
[2] = Stability of the compound assessed as bovine trypsin-mediated hydrolysis for 6 days by NMR spectroscopy; type: ADME, Bos taurus; conditions: cattle, isolated protein, 144 h; time 6 day
[3] = Competitive inhibition of bovine trypsin using Z-Arg-SBzl as substrate at pH 7.5 at 25 degC; set-up: species or system Bos taurus

| SMILES | Ki [1] [µM] | V0 (Bos taurus) | other results |
| --- | --- | --- | --- |
| CN(C)/C=N/c1ccc(Br)cn1 | > 17200 |  |  |
| CON(C)C(=O)c1ccc(NC(=N)N)nc1 | 2550 |  |  |
| COC(=O)c1ccc(NC(=N)N)nc1.O=C(O)C(F)(F)F | 1080 |  | Stabilty [2]: Stable |
| N=C(N)Nc1ccncn1 | 514 |  |  |
| N=C(N)c1ccccc1 [BENZAMIDINE] |  |  | Ki [3]: 35 µM |
| N=C(N)Nc1cccnc1 | 950 |  |  |
| N=C(N)Nc1ccc(-c2ccccc2)cn1 | 955 |  |  |
| N=C(N)Nc1ccc(C=O)cn1 | 289 |  |  |
| CC(=O)c1ccc(NC(=N)N)nc1 | 5040 |  |  |

The next lines start with results.

| Ki [1] [µM] | SMILES | V0 (Bos taurus) | other results |
| --- | --- | --- | --- |
| 144 | N=C(N)Nc1ccc(F)cn1 | 3.79 10^-8M/s |  |
| 15.1 | N=C(N)Nc1ccc(I)cn1 | 4.4 10^-8M/s |  |
| 83.2 | N=C(N)Nc1ccccn1 | 8.09 10^-8M/s |  |
| 34.7 | N=C(N)Nc1ccc(Cl)cn1 | 8.26 10^-8M/s |  |
| 119 | Cc1ccnc(NC(=N)N)c1 |  |  |
| 14 | Cc1cccnc1NC(=N)N |  |  |
| 104 | Cc1ccc(NC(=N)N)nc1 |  |  |
| 127 | N=C(N)Nc1ccc(Cl)cc1 |  |  |
| 20.5 | N=C(N)Nc1ccc(Br)cn1 | 3.85 10^-8M/s |  |
| 218 | N=C(N)Nc1ccc(C(F)(F)F)cn1 | 10.3 10^-8M/s |  |
| 91.3 | Cc1cccc(NC(=N)N)n1 |  |  |
